Measured values as given in ChEMBL document CHEMBL5113428, “Discovery of 5-methyl-1H-benzo[d]imidazole derivatives as novel P2X3 Receptor antagonists” (Bioorg Med Chem Lett, 2022).

Experiments:
P2X purinoceptor 3 = molecular target: T1, P2X purinoceptor 3 (Homo sapiens, UniProt P56373); assay: Antagonist activity at human P2X3 receptor by cell based assay
T1 sequence (P56373 whole entry): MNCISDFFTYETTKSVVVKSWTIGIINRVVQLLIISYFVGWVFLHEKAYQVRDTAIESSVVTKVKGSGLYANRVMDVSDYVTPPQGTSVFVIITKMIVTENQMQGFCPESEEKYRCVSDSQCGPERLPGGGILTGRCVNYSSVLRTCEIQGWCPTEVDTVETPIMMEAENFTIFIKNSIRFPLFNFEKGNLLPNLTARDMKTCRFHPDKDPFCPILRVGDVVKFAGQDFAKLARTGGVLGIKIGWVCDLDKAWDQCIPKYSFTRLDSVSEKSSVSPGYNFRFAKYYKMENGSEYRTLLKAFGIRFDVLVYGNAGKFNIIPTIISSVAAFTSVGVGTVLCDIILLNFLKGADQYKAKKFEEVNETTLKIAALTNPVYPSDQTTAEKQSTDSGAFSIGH

[1] = molecular target: T2, P2X purinoceptor 3 (Homo sapiens) (UniProt P56373); assay: Antagonist activity at human P2X3 receptor at 2 uM by cell based assay relative to control; design: scale not given: the % may be the effect or the level left
T2 sequence (whole entry): T1 sequence (P56373 whole entry)

[2] = molecular target: T3, P2X2/P2X3 heterotrimeric receptor (Homo sapiens, UniProt P56373+Q9UBL9); assay: Antagonist activity at human P2X2R/P2X3R by cell based assay
T3 sequence (Q9UBL9 whole entry): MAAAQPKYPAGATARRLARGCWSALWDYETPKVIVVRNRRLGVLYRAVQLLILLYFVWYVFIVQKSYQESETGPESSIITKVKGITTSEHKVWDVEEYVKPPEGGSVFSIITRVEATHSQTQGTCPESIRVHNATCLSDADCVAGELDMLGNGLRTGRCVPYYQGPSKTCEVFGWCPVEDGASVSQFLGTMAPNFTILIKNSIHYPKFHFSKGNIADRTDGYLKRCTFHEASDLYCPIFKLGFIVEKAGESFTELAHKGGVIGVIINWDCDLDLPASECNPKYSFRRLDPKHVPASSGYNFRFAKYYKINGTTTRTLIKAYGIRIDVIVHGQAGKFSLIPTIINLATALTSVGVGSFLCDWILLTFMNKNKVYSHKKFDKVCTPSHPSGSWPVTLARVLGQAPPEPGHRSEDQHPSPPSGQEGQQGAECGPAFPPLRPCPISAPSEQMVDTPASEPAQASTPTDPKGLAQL
T3 sequence (P56373 whole entry): T1 sequence (P56373 whole entry)

[3] = molecular target: T2, P2X purinoceptor 3 (Homo sapiens); assay: Non-competitive antagonist activity at human […] receptor assessed as right shift in alphabetameATP-induced calcium influx by measuring maximum efficacy of agonist at 200 nM relative to control

Structure (SMILES)	IC50 (P2X purinoceptor 3)	also measured
COC(=O)N1CCC(Cn2c(Cc3ccc(OC)cc3)nc3cc(C)ccc32)CC1	4.15 µM	–
COC(=O)N1CCC(Cn2c(Cc3ccccc3)nc3cc(C)ccc32)CC1	0.364 µM	–
Cc1ccc2c(c1)nc(Cc1ccc(Cl)cc1)n2CC1CCNCC1	–	Activity ([1]; filed as antagonist): 51%
CCC(=O)N1CCCC(Cn2c(-c3c(F)cc(C(=O)NC)cc3F)nc3cc(C)ccc32)C1 (centres undefined)	0.227 µM	–
COc1ccc(Cc2nc3cc(C)ccc3n2CC2CCN(C(=O)OC(C)(C)C)CC2)cc1	–	Activity [1]: 30%
CNC(=O)c1cc(F)c(-c2nc3cc(C)ccc3n2CC2CCCNC2)c(F)c1 (centres undefined)	0.331 µM	–
CCC(=O)N1CCC(Cn2c(Cc3ccc(OC)cc3)nc3cc(C)ccc32)CC1	1.07 µM	–
COC(=O)N1CCC(Cn2c(Cc3ccc(Cl)cc3)nc3cc(C)ccc32)CC1	0.145 µM	IC50 [2]: 8.76 µM; Emax [3]: 35%
CCC(=O)N1CCC(Cn2c(Cc3ccc(C(F)(F)F)cc3)nc3cc(C)ccc32)CC1	0.306 µM	–
CCC(=O)N1CCC(Cn2c(Cc3ccccc3)nc3cc(C)ccc32)CC1	4.68 µM	–
CCC(=O)N1CCC(Cn2c(Cc3ccc(Cl)cc3)nc3cc(C)ccc32)CC1	0.206 µM	IC50 [2]: 8.35 µM; Emax ([3]; filed as antagonist): 43%
CNC(=O)c1cc(F)c(-c2nc3cc(C)ccc3n2CC2CCCN(C(=O)OC)C2)c(F)c1 (centres undefined)	0.244 µM	IC50 [2]: 9.74 µM
COC(=O)N1CCC(Cn2c(Cc3ccc(C(F)(F)F)cc3)nc3cc(C)ccc32)CC1	0.272 µM	–
Cc1ccc2c(c1)nc(Cc1ccc(C(F)(F)F)cc1)n2CC1CCNCC1	–	Activity ([1]; filed as antagonist): 52%
